The values below come from US20260242366A1, “STING AGONISTS CONTAINING HYDRAZIDE, HYDRAZINE, AND HYDROXAMIC ACID FUNCTIONAL GROUPS” (BioNTech SE, priority 2023, published 2026).

The structures appear in SMILES notation. Where two headings read alike, the source gives them in different places.

Assay [1] has as its target T1, human STING (Homo sapiens, UniProt Q86WV6).
T1 construct: fused on or other part: His tag; chemically biotinylated (Sulfo-NHS-LC-Biotin) for capture on the chip
Description: Affinity measurement assay (Biacore T200 SPR). Conditions: biotinylated human STING, 25° C., 1:1 binding model, read-out: Affinity (Kd) rhSTING. On the procedure: T7 Shuffle E. coli cells, transformed with an expression vector encoding either a truncated version of human or murine His-tagged STING, were cultivated overnight in 50 mL LB media. 200 mL of LB media were inoculated to an OD600 of 0.05 and cells were grown at 37° C. at 120 rpm until an OD600 of 0.5 was reached. Protein expression was induced using 1 mM IPTG and cells were further cultivated at 30° C. over night. Cells were harvested by centrifugation at 4000 rpm for 30 min at 4° C. and frozen at −80° C. Subsequently, cells were thawed and resuspended in 30 mL IMAC-Buffer A (10 mM HEPES, 50 mM NaCl, 10 mM Imidazole, 250 mM L-Arginine, 10% Glycerol, pH 7.1) supplemented with 15 U/mL benzonase, 0.2 mg/mL MgCl2 and 0.1 mg/mL lysozyme. Lysis was performed by five sonification cycles with an amplitude of 25% and a pulse for 2 s, with 5 min incubation on ice between cycles. The lysate was centrifuged for 15 min at 16.000 g and the supernatant was filtrated (0.22 μm). Purification of STING was done using an ÄKTA prime chromatography system. A 1 mL His Trap excel column was equilibrated with IMAC-Buffer A before lysate was applied. After washing with multiple column volumes of buffer, STING was eluted using a linear gradient of IMAC-Buffer B (10 mM HEPES, 50 mM NaCl, 500 mM Imidazole, 250 mM L-Arginine, 10% Glycerol, pH 7.1). Elution fractions were analyzed by SDS-PAGE and STING containing fractions were mixed. Using the Äkta pure system in combination with a HiLoad Superdex 16/600 75 pg column, STING was further purified by preparative size-exclusion chromatography. Fractions were analyzed by SDS-PAGE and STING containing fractions were combined.
Purified proteins were biotinylated using EZ-Link Sulfo-NHS-LC-Biotin (Life Technologies GmbH) in ten-fold excess for 2 h on ice. The reaction was quenched by addition of 100 mM Tris pH8 and 1 h incubation on ice. Remaining biotin was removed by performing buffer exchange to PBS using Zeba Spin Desalting Columns, 7K MWCO, 0.5 mL (Thermo Fischer). Protein concentrations were determined using the Nanodrop system.
Affinity measurement of STING-binding compounds were performed using the Biacore T200 SPR system (GE Healthcare, Biacore T200 control Software 3.2). Therefore, the Biotin CAPture kit, series S (Cytiva Europe, Cat.no. 28920234) was utilized. A freshly docked Biotin CAPture chip was rehydrated overnight in the instrument (standby mode). The following day, the chip surface was conditioned three times with regeneration solution (6 M guanidine-HCl, 0.25 M NaOH) for 60 s at 10 μL/min on flow cell (FC) 1 and FC2. Subsequently, the Biotin CAPture reagent (Cytiva Europe, Cat.no. 29423383) was applied for 300 s at 2 μL/min on FC1 and FC2, followed by capturing of 100 nM biotinylated murine or 150 nM biotinylated human STING, respectively. […]
In general terms: In SPR one partner is held on a chip, and binding of the other changes the refractive index at the surface.

Assay [2] relates to PBMCs from healthy donors. The experiment in a line: PBMC assay, dose-dependent cytokine induction. Type of assay: cell-based. Conditions: Homo sapiens, 24 h. On the procedure:
Compounds I-A to IV were additionally tested on PBMCs from healthy donors to determine the dose-dependent cytokine induction. PBMCs from buffy coats were thawed on the day of the experiment and seeded with a density of 5×10^5 cells per well (96-well format, RPMI with 5% Human Serum+1% MEM Non-Essential Amino Acids+1% Sodium Pyruvate). In line with the experiment above, a serial dilution of the compounds was prepared and added to the cells for 24 hours. On the next days, cells were centrifuged and supernatants harvested for a cytokine readout based on a multiplex assay kit from mesoscale discovery (customized multiplex panel for the cytokines: IFNα2a, IFNβ, TNFα and IL6). Impact on cell viability was determined by CellTiter Glo2.0 from promega (Cat. G9241). Both experimental read outs were performed according to the manufacturer's instructions.

For assay [3], the system named is 4T1 cells. Description: Anti-tumoral efficacy in murine 4T1 breast cancer model. The assay is classed as in vivo, Balb/c Rj mice. On the procedure: The anti-tumoral efficacy of compound I-D was tested in a murine 4T1 breast cancer model. Balb/c Rj mice were injected subcutaneously with 1×10^5 4T1 cells. Three doses of compound I-D formulated in 5% Solutol in 2.5% glucose (31 nmol, 3.1 nmol and 0.31 nmol) or the vehicle control (5% Solutol in 2.5% glucose) were administered intratumorally at days 11, 16 and 21 after inoculation. Tumor size was monitored using BioVolume® (calculating the tumor size based on RGB, thermal and 3D model data) until day 21, when animals were sacrificed and tumor cytokines were analyzed compared to serum 3 h after final agonist injection. To evaluate the statistical significance of tumor volume reduction compared to the vehicle control, a 2way ANOVA test was used: *** p<0.0001.

In assay [4] the test system is STING signaling (IRF and NFKB-pathway activation) in THP1 Dual Cells. The experiment in a line: THP-1 assay (THP1 Dual reporter cells, IRF / NFkB pathway activation). Type of assay: cell-based. Conditions: Homo sapiens; THP1 Dual cells, 24 h incubation, IRF pathway; read-out: THP-1 EC50 (IRF). Here is the method:
THP1 Dual Cells™, were purchased from Invivogen (Cat. thpd-nfis), and used to determine the biological activity of the compounds on a molecular level and to determine downstream activation of STING signaling (IRF and NFKB-pathway activation). Briefly, cultured cells were seeded on the day of the experiment with a density of 1×10^5 cells per well (96-well format in RPMI supplemented with 25 mM HEPES, 10% heat inactivated FCS,). A serial dilution of the compounds was prepared and added to the cells for a total incubation time of 24 hours. The test items were tested in 8 concentrations to determine a dose-dependent activation of the NFKB and the IRF pathway. After 24 h cells were centrifuged and supernatants harvested for the detection of secreted alkaline phosphatase (measured by QUANTI-Blue™ detection solution; Cat. rep-qbs Invivogen) or lucia luciferase (measured by QUANTI-Luc™ reagent; Cat. rep-qlc1, Invivogen), respectively. The read outs were be performed according to the manufacturer's instructions. EC50 values were calculated using GraphPad Prism 9.

Where [5] appears, read: IFNβ in supernatant, read-out: PBMC EC50 (μM) for IFNβ.
Setting [6] is: IFNα in supernatant, read-out: PBMC EC50 (μM) for IFNα.
[7] abbreviates: tumor, 3 h after final agonist injection, day 21.

T1 sequence (Q86WV6 153-340 limits assumed): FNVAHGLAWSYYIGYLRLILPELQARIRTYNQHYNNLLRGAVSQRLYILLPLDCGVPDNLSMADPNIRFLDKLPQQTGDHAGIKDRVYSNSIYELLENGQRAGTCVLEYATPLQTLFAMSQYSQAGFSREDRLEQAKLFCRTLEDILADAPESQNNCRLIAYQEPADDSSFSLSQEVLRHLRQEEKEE

Usually Kd stands for the free concentration of one partner at which half of the binding sites on the other are occupied at equilibrium, for simple one-to-one binding. One may read the EC50 as the midpoint of the concentration-response curve. Take `CCn1nc(C)cc1C(=O)Nc1nc2cc(C(N)=O)cc(OC)c2n1C/C=C/Cn1c(NC(=O)c2cc(C)nn2CC)nc2cc(C(=O)NN)cc(OCCCN3CCOCC3)c21` [III]: in assay [1], the Kd stood at 0.319 nM. The EC50 in assay [2] (setting [5]) turned out to be 0.387 µM.

`CCn1nc(C)cc1C(=O)Nc1nc2cc(C(=O)N(C)NC)cc(OC)c2n1C/C=C/Cn1c(NC(=O)c2cc(C)nn2CC)nc2cc(C(N)=O)cc(OCCCN3CCOCC3)c21` [II-D]: the Kd in assay [1] amounted to 2.91 nM. The values for the EC50 in assay [2] (setting [6]) and in assay [2] (setting [5]) were 1.14 µM and 0.821 µM, respectively.

With `CCn1nc(C)cc1C(=O)Nc1nc2cc(C(N)=O)cc(OC)c2n1C/C=C/Cn1c(NC(=O)c2cc(C)nn2CC)nc2cc(C(N)=O)cc(OCCCC(=O)N(C)NC)c21` [I-D], the Kd in assay [1] stood at 0.00413 nM. In addition, in assay [3] (31, 3.1 and 0.31 nmol intratumorally at days 11, 16 and 21, until day 21), the “Tumor size (BioVolume) compared to vehicle control” value was “marked decrease in tumor size”. Further, in assay [3] (setting [7]), the “IFNα level in the tumor compared to diABZI” value is “higher levels” and the “IFNγ level in the tumor compared to diABZI” value is given as “higher levels”. Also, the EC50 in assay [2] (setting [6]) was 0.26 µM. For the same molecule, the EC50 in assay [2] (setting [5]) stood at 0.265 µM.

For the molecule `CCn1nc(C)cc1C(=O)Nc1nc2cc(C(=O)NNC)cc(OC)c2n1C/C=C/Cn1c(NC(=O)c2cc(C)nn2CC)nc2cc(C(N)=O)cc(OCCCN3CCOCC3)c21` [II-B], in assay [1], the Kd came to 0.959 nM. Further, the values for the EC50 in assay [4], in assay [2] (setting [6]) and in assay [2] (setting [5]) were 2740 nM, 1.95 µM and 1.16 µM, respectively.
